The term IC50 denotes the point on the concentration scale where inhibition reaches its midpoint. Higher therefore signals weaker potency in that assay.

Experiment [1] deals with human orexin-2 receptor (hOX2R) (Homo sapiens (Human), UniProt O43614). Briefly: FLIPR Ca2+ flux assay, orexin-2 receptor. The experiment is classed as cell-based. Conditions: CHO cells expressing the receptor; agonist 70 pM Ala-6,12 orexin-A. As for the experimental part:
The utility of the compounds in accordance with the present invention as orexin receptor OX1R and/or OX2R antagonists may be readily determined without undue experimentation by methodology well known in the art, including the “FLIPR Ca^2+ Flux Assay” (Okumura et al., Biochem. Biophys. Res. Comm. 280:976-981, 2001). In a typical experiment the OX1 and OX2 receptor antagonistic activity of the compounds of the present invention was determined in accordance with the following experimental method. For intracellular calcium measurements, Chinese hamster ovary (CHO) cells expressing the rat orexin-1 receptor or the human orexin-2 receptor, are grown in Iscove's modified DMEM containing 2 mM L-glutamine, […], 1% hypoxanthine-thymidine supplement, 100 U/ml penicillin, 100 μg/ml streptomycin and 10% heat-inactivated fetal calf serum (FCS). The cells are seeded at 20,000 cells/well into Becton-Dickinson black 384-well clear bottom sterile plates coated with poly-D-lysine. All reagents were from GIBCO-Invitrogen Corp. The seeded plates are incubated overnight at 37° C. and 5% CO2. Ala-6,12 human orexin-A as the agonist is prepared as a 1 mM stock solution in 1% bovine serum albumin (BSA) and diluted in assay buffer (HBSS containing 20 mM HEPES, 0.1% BSA and 2.5 mM probenecid, pH7.4) for use in the assay at a final concentration of 70 pM. Test compounds are prepared as 10 mM stock solution in DMSO, then diluted in 384-well plates, first in DMSO, then assay buffer. On the day of the assay, cells are washed 3 times with 100 μl assay buffer and then incubated for 60 min (37° C., 5% CO2) in 60 μl assay buffer containing 1 μM Fluo-4AM ester, 0.02% pluronic acid, and 1% BSA. The dye loading solution is then aspirated and cells are washed 3 times with 100 μl assay buffer. 30 μl of that same buffer is left in each well. Within the Fluorescent Imaging Plate Reader (FLIPR, Molecular Devices), test compounds are added to the plate in a volume of 25 μl, incubated for 5 min and finally 25 μl of agonist is added. Fluorescence is measured for each well at 1 second intervals for 5 minutes and the height of each fluorescence peak is compared to the height of the fluorescence peak induced by 70 pM Ala-6,12 orexin-A with buffer in place of antagonist. For each antagonist, IC50 value (the concentration of compound needed to inhibit 50% of the agonist response) is determined. Alternatively, compound potency can be assessed by a radioligand binding assay (described in Bergman et. al. Bioorg. Med. Chem. Lett. 2008, 18, 1425-1430) in which the inhibition constant (Ki) is determined in membranes prepared from CHO cells expressing either the OX1 or OX2 receptor. The intrinsic orexin receptor antagonist activity of a compound which may be used in the present invention may be determined by these assays.

For another experiment, the target named is hOX1R (Homo sapiens, UniProt O43613). Put plainly: FLIPR Ca2+ flux assay, orexin-1 receptor. The experiment is classed as cell-based. Conditions: CHO cells expressing the receptor; agonist 70 pM Ala-6,12 orexin-A.

Bounds are passed on as bounds.

human orexin-2 receptor (hOX2R), sequence (O43614 whole entry): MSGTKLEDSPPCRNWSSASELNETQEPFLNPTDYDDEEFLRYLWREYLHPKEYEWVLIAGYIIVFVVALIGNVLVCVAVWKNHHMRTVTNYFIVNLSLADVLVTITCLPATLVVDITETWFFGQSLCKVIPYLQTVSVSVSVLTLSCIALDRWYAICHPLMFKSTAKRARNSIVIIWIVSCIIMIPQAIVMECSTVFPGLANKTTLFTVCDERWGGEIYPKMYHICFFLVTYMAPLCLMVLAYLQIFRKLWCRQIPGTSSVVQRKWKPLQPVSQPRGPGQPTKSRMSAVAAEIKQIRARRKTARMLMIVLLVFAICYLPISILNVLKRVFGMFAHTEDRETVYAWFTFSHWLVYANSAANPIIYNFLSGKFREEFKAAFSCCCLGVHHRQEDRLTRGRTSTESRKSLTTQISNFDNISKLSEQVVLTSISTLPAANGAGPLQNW

Consider `Cc1oc(N2CC3CN(C(=O)c4ncccc4-c4ccccc4)CC3C2)nc1C(C)(C)O` (centres unmarked) [Example 5, 2-(5-methyl-2-{5-[(3-phenylpyridin-2-yl)carbonyl]hexahydropyrrolo[3,4-c]pyrrol-2(1H)-yl}-1,3-oxazol-4-yl) propan-2-ol], for which the half-maximal inhibitory concentration (IC50) was 583 nM in experiment [1] and more than 10000 nM on hOX1R.

The values are drawn from patent publication US9987255B2, “5,5-bicyclic oxazole orexin receptor antagonists” (Merck Sharp & Dohme Corp., priority 2014, dated 2018).
